In ChEMBL document CHEMBL3425421, “Chromone derivatives from a sponge-derived strain of the fungus Corynespora cassiicola” (J Nat Prod, 2015):
Activity calls are given as the source filed them.

Assays:
Bacillus subtilis = assay: Antibacterial activity against Bacillus subtilis assessed as absence of growth after 18 hrs by conventional broth dilution assay; assay type: functional, organism-based
Bacillus cereus = assay: Antibacterial activity against Bacillus cereus assessed as absence of growth after 18 hrs by conventional broth dilution assay; assay type: functional, organism-based
HeLa = assay: Cytotoxicity against human HeLa cells by MTT assay; assay type: functional, cell-based
HL-60 = assay: Cytotoxicity against human HL60 cells by MTT assay; assay type: functional, cell-based
[1] = target: Acetylcholinesterase (Electrophorus electricus) (UniProt O42275); assay: Inhibition of electric eel AChE using acetylthiocholine iodide as substrate by Ellman's method
Sequence of Acetylcholinesterase (Electrophorus electricus) (O42275 24-633 limits assumed): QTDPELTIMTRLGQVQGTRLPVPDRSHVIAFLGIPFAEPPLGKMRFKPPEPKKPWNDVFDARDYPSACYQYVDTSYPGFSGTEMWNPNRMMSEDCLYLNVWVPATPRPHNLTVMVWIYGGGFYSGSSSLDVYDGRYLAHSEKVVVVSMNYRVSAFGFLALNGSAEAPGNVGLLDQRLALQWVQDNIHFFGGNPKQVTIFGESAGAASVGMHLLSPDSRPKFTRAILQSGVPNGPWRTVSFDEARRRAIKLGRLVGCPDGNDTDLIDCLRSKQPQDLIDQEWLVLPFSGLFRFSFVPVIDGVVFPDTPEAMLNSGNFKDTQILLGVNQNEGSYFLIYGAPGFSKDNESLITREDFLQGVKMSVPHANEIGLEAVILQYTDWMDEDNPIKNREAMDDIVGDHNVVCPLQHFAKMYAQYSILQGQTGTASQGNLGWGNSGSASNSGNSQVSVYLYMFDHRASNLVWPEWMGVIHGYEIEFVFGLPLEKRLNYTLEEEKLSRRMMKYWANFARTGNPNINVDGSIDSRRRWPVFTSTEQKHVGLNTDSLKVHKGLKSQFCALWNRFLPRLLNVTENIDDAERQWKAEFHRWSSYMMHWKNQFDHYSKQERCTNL

[2] = tested on: Tetragenococcus halophilus; assay: Antibacterial activity against Tetragenococcus halophilus assessed as absence of growth after 18 hrs by conventional broth dilution assay; assay type: functional
Staphylococcus aureus = assay: Antibacterial activity against Staphylococcus aureus assessed as absence of growth after 18 hrs by conventional broth dilution assay; assay type: functional, organism-based
Vibrio parahaemolyticus = assay: Antibacterial activity against Vibrio parahaemolyticus assessed as absence of growth after 18 hrs by conventional broth dilution assay; assay type: functional, organism-based
K562 = assay: Cytotoxicity against human K562 cells by MTT assay; assay type: functional, cell-based
Pseudomonas putida = assay: Antibacterial activity against Pseudomonas putida assessed as absence of growth after 18 hrs by conventional broth dilution assay; assay type: functional, organism-based
A549 = assay: Cytotoxicity against human A549 cells by MTT assay; assay type: functional, cell-based
[3] = target: T1, DNA topoisomerase (Bos taurus) (UniProt A0JN73); assay: Inhibition of calf thymus Topoisomerase 1 relaxation activity by plasmid relaxation assay
T1 sequence (whole entry): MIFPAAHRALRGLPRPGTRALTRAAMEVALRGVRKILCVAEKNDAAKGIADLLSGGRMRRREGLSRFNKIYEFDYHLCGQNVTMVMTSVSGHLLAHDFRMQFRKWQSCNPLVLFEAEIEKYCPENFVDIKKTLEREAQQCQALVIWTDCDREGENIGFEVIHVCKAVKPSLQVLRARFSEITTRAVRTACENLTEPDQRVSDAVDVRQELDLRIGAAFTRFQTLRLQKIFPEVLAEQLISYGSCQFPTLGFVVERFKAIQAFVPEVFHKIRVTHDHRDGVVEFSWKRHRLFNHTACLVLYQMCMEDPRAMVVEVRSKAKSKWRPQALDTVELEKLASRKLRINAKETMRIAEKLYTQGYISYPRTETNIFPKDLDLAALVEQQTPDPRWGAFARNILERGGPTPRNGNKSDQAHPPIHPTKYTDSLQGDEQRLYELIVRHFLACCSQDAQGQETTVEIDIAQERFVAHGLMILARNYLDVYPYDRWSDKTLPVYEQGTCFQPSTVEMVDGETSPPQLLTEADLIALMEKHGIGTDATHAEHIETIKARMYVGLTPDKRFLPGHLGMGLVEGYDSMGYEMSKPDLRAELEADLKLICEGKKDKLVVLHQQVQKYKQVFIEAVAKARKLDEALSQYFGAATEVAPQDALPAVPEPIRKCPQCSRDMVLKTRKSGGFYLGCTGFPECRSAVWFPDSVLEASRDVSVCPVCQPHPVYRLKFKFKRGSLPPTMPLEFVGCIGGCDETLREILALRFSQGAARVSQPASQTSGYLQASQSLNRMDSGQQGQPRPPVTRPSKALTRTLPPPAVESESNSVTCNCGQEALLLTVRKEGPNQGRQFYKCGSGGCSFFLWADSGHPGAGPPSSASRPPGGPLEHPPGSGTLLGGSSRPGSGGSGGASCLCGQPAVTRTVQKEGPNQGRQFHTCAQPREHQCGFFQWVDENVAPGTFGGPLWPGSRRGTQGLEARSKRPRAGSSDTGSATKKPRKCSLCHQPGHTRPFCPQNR

Amphibalanus amphitrite = assay: Antifouling activity against Balanus amphitrite Darwin; assay type: functional, organism-based
Staphylococcus = assay: Antibacterial activity against Staphylococcus albus assessed as absence of growth after 18 hrs by conventional broth dilution assay; assay type: functional, organism-based

Measured: inhibition

CCOC(=O)Cc1cc(O)cc2c1C(=O)C[C@@H](C[C@H](C)O)O2
inactive: all assays above

CCOC(=O)Cc1cc(O)cc2c1C(=O)C[C@H](C[C@H](C)O)O2
inactive: all assays above

C[C@H](O)C[C@H]1CC(=O)c2c(CC(=O)O)cc(O)cc2O1
inactive: all assays above

CCOC(=O)Cc1cc(O)cc2oc(C)cc(=O)c12
inactive: all assays above

Cc1cc(=O)c2c(CC(=O)OCC(C)C)cc(O)cc2o1
inactive: all assays above

COc1c(O)cc(CC(=O)O)c2c1O[C@H](C[C@H](C)O)CC2=O
inactive: all assays above

CCOC(=O)Cc1cc(O)cc2oc(/C=C/C[C@H](C)O)cc(=O)c12
inactive: all assays above

CC(C)COC(=O)Cc1cc(O)cc2c1C(=O)C[C@@H](C[C@H](C)O)O2
inactive: all assays above

CC(=O)C[C@H]1CC(=O)c2c(CC(=O)O)cc(O)cc2O1
inactive: all assays above

C[C@H](O)C[C@@H]1CC(=O)c2c(CC(=O)O)cc(O)cc2O1
inactive: all assays above

COc1c(O)cc(CC(=O)O)c2c1O[C@@H](C[C@H](C)O)CC2=O
inactive: all assays above

CC(C)COC(=O)Cc1cc(O)cc2c1C(=O)C[C@H](C[C@H](C)O)O2
inactive: all assays above
